Here are results for 16 molecules from publication PMC12462173, “Evaluation of in vitro drug-drug interactions of ivermectin and antimalarial compounds” (Malaria Journal, 2025).

SMILES strings stand for the structures. “And” between values parts separate entries of the source, which are not always exact repeats. Equal values may be shown once. “Also recorded” adds a separate entry of the source.

For data set [1] the following is noted: enzymes that metabolize the drug; cited from earlier work.
For data set [2] the following is noted: reported peak concentration in a patient population associated with standard dosing; cited from earlier work.
For data set [3] the following is noted: Rhesus macaques; cited from earlier work.
Data set [4] has as its system pooled human liver microsomes. The data set is described as follows: In vitro metabolism of ivermectin in pooled human liver microsomes, alone and co-incubated with an antimalarial (CYP-mediated DDI). As for the experimental part: Pooled human liver microsomes (containing 20 mg/mL protein) were thawed on ice, and the reactions were conducted in a 96-well plate (1 mL, Agilent Technologies, Santa Clara, CA, USA). The assay buffer consisted of 0.1 M potassium phosphate buffer (pH 7.4). The premix solutions for each condition were prepared with specific volumes of each component, as outlined in Table S1. The premix solution was prepared by combining ivermectin, antimalarial drug, microsomes, and buffer. Three replicates of each premix solution were prepared, and 475 µL of each premix was transferred into separate wells of the 96-well plate. The plate was incubated at 37 °C for 5 min with gentle shaking (300 rpm). Following incubation, 25 µL of 20 mM NADPH was added to each well, and the solution was mixed thoroughly. The final incubation mixture (500 µL) contained a total microsome concentration of 0.53 mg/mL. To monitor the metabolism of ivermectin, 50 µL from each well was collected at 0, 15, 30, 45, 60, 90, 120, and 150 min and transferred to a new plate containing 200 µL of cold acetonitrile and 100 ng/mL of ivermectin-D2 (internal standard). The collection plate was kept on ice during sampling. After sample collection, the plate was sealed and centrifuged at 1,100 × g for 15 min at 4 °C. A 100 µL aliquot of the clear supernatant was transferred to a new plate for immediate LC–MS analysis.
The LC system consisted of an Agilent 1260 quaternary pump, an Agilent 1260 autosampler (set at 6 °C), and an Agilent 1290 column compartment (set at 40 °C). Five µL of sample was analysed on an Acquity UPLC HSS T3 reversed-phase column (2.1 × 100 mm, 1.8 μm) with a precolumn (2.1 × 5 mm, 1.8 μm) under a linear gradient. The mobile phase consisted of water with 10 mM ammonium acetate and 0.1% formic acid (A) and acetonitrile:water (95:5, v/v) with 10 mM ammonium acetate and 0.1% formic acid (B), at a flow rate of 0.3 mL/min. The gradient started at 75% B, ramped to 90% B over 2 min, held at 90% B for 4 min, and returned to 75% B in 0.1 min, with a 3.9-min re-equilibration. A Sciex TripleTOF 5600 + Q-TOF MS with DuoSpray ESI was used for LC–MS analysis in the positive mode, with source conditions set at 40 psi for ion source gas 1 (GS1) and gas 2 (GS2), 30 psi for curtain gas (CUR), 4,500 V for ion spray voltage floating (ISVF), 350 °C source temperature (TEM), and 120 V declustering potential (DP). Data were acquired from m/z 100–1,000 in TOF–MS scan mode using Analyst TF Software 1.8, and ivermectin quantification (ivermectin peak area/internal standard peak area) was performed with MultiQuant Software (Sciex, Framingham, MA, USA) with a high resolution TOF–MS scan mode.
The metabolism rate of ivermectin was evaluated based on the normalized peak area (%) of ivermectin over a total of 150 min of incubation. […] This normalized value was further adjusted relative to the pre-incubation ivermectin peak area (zero-minute sample) within a sample collection series, resulting in final ivermectin concentrations expressed as relative peak areas. All individual ivermectin concentrations (relative peak area) from triplicate incubations were fitted to an ordinary linear regression, separately conducted for ivermectin alone and ivermectin co-incubated with an antimalarial. The estimated (±95% CI) slope and intercept of the regression analysis was derived using GraphPad Prism v.10.4.2. Additionally, the slopes of the regression analyses were compared statistically between ivermectin alone and when co-incubation with an antimalarial, as an automated output from the regression analysis. Furthermore, the relative difference (%) in in vitro metabolism rate (i.e. difference between regression slopes) for ivermectin alone and when co-incubated with an antimalarial was calculated as shown in Eq. 1.
(In general: Liver microsomes are vesicles of endoplasmic reticulum, rich in cytochrome P450 enzymes.)

In the case of `CCN(CC)Cc1cc(Nc2ccnc3cc(Cl)ccc23)ccc1O` [Amodiaquine], in data set [1], the Metabolism pathway result was “Major CYP2C8; Minor CYP1A1, CYP1B1 [23, 28]”.

With `CO[C@H]1O[C@@H]2O[C@@]3(C)CC[C@H]4[C@H](C)CC[C@@H]([C@H]1C)[C@@]24OO3` [Artemether], the “Reported Cmax (ng/ml)” value in data set [2] is 186 [11] ng/ml. Also, the Metabolism pathway entry in data set [1] was “Major CYP2B6; Minor CYP3A4 [19, 20, 26]”.

For `C[C@H]1[C@H](OC(=O)CCC(=O)O)O[C@@H]2O[C@@]3(C)CC[C@H]4[C@H](C)CC[C@@H]1[C@@]24OO3` [Artesunate], the “Reported Cmax (ng/ml)” value in data set [2] was 244 [11] ng/ml.

In the case of `O=C1C(O)=C([C@H]2CC[C@H](c3ccc(Cl)cc3)CC2)C(=O)c2ccccc21` [Atovaquone], the “Reported Cmax (ng/ml)” value in data set [2] is 13,300 [11] ng/ml. In addition, the Metabolism pathway result in data set [1] was “Major CYP3A4; Minor CYP2C9 [21, 22]”.

As for `CCN(CC)CCCC(C)Nc1ccnc2cc(Cl)ccc12` (centres unmarked) [Chloroquine], in data set [2], the “Reported Cmax (ng/ml)” value is 1430 [11] ng/ml. The “Exposure to ivermectin on co-administration” value in data set [3] is reported as “increased exposure to ivermectin”. For the same molecule, the “DDI effect on the in vitro metabolism rate of ivermectin (class in words)” value (“DDI effect” for short) in data set [4] was “substantial”.

For the molecule `C[C@H]1[C@@H](O)O[C@@H]2O[C@@]3(C)CC[C@H]4[C@H](C)CC[C@@H]1[C@@]24OO3` [Dihydroartemisinin], in data set [2], the “Reported Cmax (ng/ml)” value was 421 [3] ng/ml. The Metabolism pathway result in data set [1] is “Glucuronidation by UGT1A9 and UGT2B7 [29]”.

In the case of `CC[C@H](C)[C@H]1O[C@]2(CC[C@@H]1C)C[C@@H]1C[C@@H](C/C=C(\C)[C@@H](O[C@H]3C[C@H](OC)[C@@H](O[C@H]4C[C@H](OC)[C@@H](O)[C@H](C)O4)[C@H](C)O3)[C@@H](C)/C=C/C=C3\CO[C@@H]4[C@H](O)C(C)=C[C@@H](C(=O)O1)[C@]34O)O2` [Ivermectin], in data set [2], the “Reported Cmax (ng/ml)” value was 119 [3] ng/ml. The Metabolism pathway result in data set [1] is “primarily metabolized by CYP3A4 and to a lesser extent CYP3A5 and CYP2C8; also recorded: Major CYP3A4; Minor CYP3A5, CYP2C8 [31, 32]”. Further, the “Intercept (95%CI) of linear regression of ivermectin relative peak area (%), ivermectin alone” value in data set [4] (ivermectin 1 µM alone, control run paired with the antimalarial of the same table line) is 97.6 (95.4-99.9) and 96.1 (94.1-98.1) and 98.0 (96.7-99.2) and 97.7 (96.2-99.2) and 98.0 (96.6-99.4) and 100.1 (98.5-101.7) and 97.8 (95.9-99.8).

For the molecule `CCCCN(CCCC)CC(O)c1cc(Cl)cc2c1-c1ccc(Cl)cc1/C2=C/c1ccc(Cl)cc1` (centres unmarked) [Lumefantrine], the “Reported Cmax (ng/ml)” value in data set [2] is 25,700 [11] ng/ml. The Metabolism pathway entry in data set [1] is “CYP3A4 [19, 20]”.

As to `OC(c1cc(C(F)(F)F)nc2c(C(F)(F)F)cccc12)C1CCCCN1` (centres unmarked) [Mefloquine], the “Reported Cmax (ng/ml)” value in data set [2] is 2700 [11] ng/ml. Also, in data set [4], the “DDI effect” value is listed as “substantial”.

For the molecule `Clc1ccc2c(N3CCN(CCCN4CCN(c5ccnc6cc(Cl)ccc56)CC4)CC3)ccnc2c1` [Piperaquine], in data set [2], the “Reported Cmax (ng/ml)” value was 568 [11] ng/ml. Further, in data set [1], the Metabolism pathway entry was “Major CYP3A4; Minor CYP2C8 [14]”.

Turning to `COc1cc(NC(C)CCCN)c2ncccc2c1` (centres unmarked) [Primaquine], the “Reported Cmax (ng/ml)” value in data set [2] is 167 [11] ng/ml. Further, the Metabolism pathway entry in data set [1] was “Major CYP2D6; Minor CYP1A2 [23, 30]”.

For `[H]/N=C(\N/C(=N/[H])Nc1ccc(Cl)cc1)NC(C)C` [Proguanil], in data set [2], the “Reported Cmax (ng/ml)” value is 750 [11] ng/ml. Further, the Metabolism pathway result in data set [1] is “CYP2C19 [18]”.

Consider `CCc1nc(N)nc(N)c1-c1ccc(Cl)cc1` [Pyrimethamine], for which the “Reported Cmax (ng/ml)” value in data set [2] was 280 [11] ng/ml. Also, the Metabolism pathway result in data set [1] is “CYP1B1, CYP2C9 [23]”. In data set [4], the “DDI effect” value was “little impact”. In data set [4] (human, pH 7.4), the “Intercept (95%CI) of linear regression of ivermectin relative peak area (%), combination” value was 96.7 (95.0-98.3) and the “Slope (95%CI) of linear regression of ivermectin relative peak area (%) over time, combination” value was -0.21 (-0.24 to -0.19).

For `COc1ccc2nc3cc(Cl)ccc3c(Nc3cc(CN4CCCC4)c(O)c(CN4CCCC4)c3)c2n1` [Pyronaridine], the “Reported Cmax (ng/ml)” value in data set [2] was 571 [12] ng/ml. The Metabolism pathway entry in data set [1] is “CYP1A2, CYP2D6, CYP3A4 [24]”.

On to `COc1ncnc(NS(=O)(=O)c2ccc(N)cc2)c1OC` [Sulfadoxine], for which the “Reported Cmax (ng/ml)” value in data set [2] is 130,000 [11] ng/ml. Moreover, the Metabolism pathway result in data set [1] is “Acetylation by N-Acetyltransferase 2 [25]”.

As for `COc1cc(C)c2c(Oc3cccc(C(F)(F)F)c3)c(OC)cc(NC(C)CCCN)c2n1` (centres unmarked) [Tafenoquine], the “Reported Cmax (ng/ml)” value in data set [2] is 300 [13] ng/ml. Moreover, the Metabolism pathway entry in data set [1] is “CYP2D6 [27]”.
